For one assay, the target named is T1, human CYP11B1 (Homo sapiens, UniProt P15538).
T1 construct: expressed in transfected cells
T1 sequence (P15538 25-503): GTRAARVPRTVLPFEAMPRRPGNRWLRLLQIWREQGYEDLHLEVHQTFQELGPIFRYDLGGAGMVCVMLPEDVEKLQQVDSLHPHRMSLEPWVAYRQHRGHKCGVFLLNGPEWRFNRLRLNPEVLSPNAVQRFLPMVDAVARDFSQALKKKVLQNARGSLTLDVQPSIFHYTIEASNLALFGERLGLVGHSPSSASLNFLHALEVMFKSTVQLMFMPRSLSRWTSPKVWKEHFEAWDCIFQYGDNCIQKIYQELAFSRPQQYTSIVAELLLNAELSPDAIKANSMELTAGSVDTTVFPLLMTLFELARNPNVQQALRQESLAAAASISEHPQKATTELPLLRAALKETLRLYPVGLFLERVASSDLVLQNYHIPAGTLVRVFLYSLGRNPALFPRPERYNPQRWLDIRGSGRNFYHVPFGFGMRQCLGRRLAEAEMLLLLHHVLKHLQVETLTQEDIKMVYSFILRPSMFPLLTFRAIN
The assay is described as follows: Inhibition of hCYP11B1 in transfected V79 cells. The following applies: hamster V79 cells expressing human CYP11B1; substrate 11-deoxycortisol 200 nM. Format: cell-based. Summed up:
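Reactions started with 200 nM 11-deoxycortisol, ran for 30 min and were stopped with ethyl acetate, after a 2 h compound preincubation. The host was stably transfected V79 hamster cells carrying human CYP11B1 plus rat P450 reductase. Percent inhibition, from LC-MS/MS or HPLC (260 nm) quantitation of substrate and product, gave the IC50.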

Another assay has as its target T2, human CYP11B2 (Homo sapiens, UniProt P19099).
T2 construct: expressed in transfected cells
T2 sequence (P19099 25-503): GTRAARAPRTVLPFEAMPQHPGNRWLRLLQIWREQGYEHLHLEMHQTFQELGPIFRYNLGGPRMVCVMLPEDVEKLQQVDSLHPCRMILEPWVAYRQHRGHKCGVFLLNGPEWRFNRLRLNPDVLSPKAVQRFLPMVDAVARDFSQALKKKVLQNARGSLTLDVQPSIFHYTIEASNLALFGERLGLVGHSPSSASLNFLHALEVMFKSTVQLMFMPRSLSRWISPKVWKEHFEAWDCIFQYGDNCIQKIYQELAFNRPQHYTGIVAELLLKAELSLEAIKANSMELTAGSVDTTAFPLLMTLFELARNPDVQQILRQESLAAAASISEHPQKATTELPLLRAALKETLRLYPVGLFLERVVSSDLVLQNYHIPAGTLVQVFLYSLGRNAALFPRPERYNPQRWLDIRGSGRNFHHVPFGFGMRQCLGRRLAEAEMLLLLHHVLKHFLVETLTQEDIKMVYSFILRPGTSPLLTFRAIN
The assay is described as follows: Inhibition of hCYP11B2 in transfected V79 cells. The conditions noted are these: hamster V79 cells expressing human CYP11B2; substrate 11-deoxycorticosterone 200 nM. Format: cell-based. Summed up:
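The substrate (200 nM, 30 min) was added after a 2 hour compound pre-incubation in lentivirus-transduced V79 cells stably expressing human CYP11B2 plus rat NADPH-P450 reductase.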

With `N#CN1CC2(CC(S(=O)(=O)N3CCSc4c(-c5cc6cc(Cl)ccc6o5)cncc43)C2)C1` [S67, 6-((8-(5-chlorobenzofuran-2-yl)-2,3-dihydro-4H-pyrido[4,3-b][1,4]thiazin-4-yl)sulfonyl)-2-azaspiro[3.3]heptane-2-carbonitrile], the IC50 at human CYP11B1 was determined as 603 nM; against human CYP11B2, 3.2 nM.

Regarding `N#Cc1ccc(-c2cncc3c2SCCN3S(=O)(=O)C2CN(C(=O)c3ccc(F)cc3)C2)cc1` [S68, 4-(4-((1-(4-Fluorobenzoyl)azetidin-3-yl)sulfonyl)-3,4-dihydro-2H-pyrido[4,3-b][1,4]thiazin-8-yl)benzonitrile], the results for the IC50 on human CYP11B1 and at human CYP11B2 were 22 nM and 0.8 nM, respectively.

Take `N#Cc1ccc(-c2cncc3c2SCCN3S(=O)(=O)C2CN(C(=O)c3cccc(F)c3)C2)cc1` [S69, 4-(4-((1-(3-Fluorobenzoyl)azetidin-3-yl)sulfonyl)-3,4-dihydro-2H-pyrido[4,3-b][1,4]thiazin-8-yl)benzonitrile]: the IC50 at human CYP11B1 was 73 nM; at human CYP11B2, 1.3 nM.

As to `N#Cc1ccc(C(=O)N2CC(S(=O)(=O)N3CCSc4c(-c5ccc(C#N)cc5)cncc43)C2)cc1` [S70, 4-(4-((1-(4-Cyanobenzoyl)azetidin-3-yl)sulfonyl)-3,4-dihydro-2H-pyrido[4,3-b][1,4]thiazin-8-yl)benzonitrile], the IC50 was determined as 49 nM on human CYP11B1 and 1.4 nM at human CYP11B2.

For the compound `N#Cc1ccc(-c2cncc3c2SCCN3S(=O)(=O)C2CN(C(=O)c3cccc(C#N)c3)C2)cc1` [S71, 3-(3-((8-(4-Cyanophenyl)-2,3-dihydro-4H-pyrido[4,3-b][1,4]thiazin-4-yl)sulfonyl)azetidine-1-carbonyl)benzonitrile], the half-maximal inhibitory concentration (IC50) is 349 nM against human CYP11B1 and 14 nM against human CYP11B2.

In the case of `COc1ccc(C(=O)N2CC(S(=O)(=O)N3CCSc4c(-c5ccc(C#N)cc5)cncc43)C2)cc1` [S72, 4-(4-((1-(4-Methoxybenzoyl)azetidin-3-yl)sulfonyl)-3,4-dihydro-2H-pyrido[4,3-b][1,4]thiazin-8-yl)benzonitrile], the results for the IC50 at human CYP11B1 and against human CYP11B2 were 23 nM and 2.1 nM, respectively.

For `COc1cccc(C(=O)N2CC(S(=O)(=O)N3CCSc4c(-c5ccc(C#N)cc5)cncc43)C2)c1` [S73, 4-(4-((1-(3-Methoxybenzoyl)azetidin-3-yl)sulfonyl)-3,4-dihydro-2H-pyrido[4,3-b][1,4]thiazin-8-yl)benzonitrile], the IC50 at human CYP11B1 turned out to be 18 nM; at human CYP11B2, 0.3 nM.

As for `N#Cc1ccc(-c2cncc3c2SCCN3S(=O)(=O)C2CN(S(=O)(=O)c3ccc(F)cc3)C2)cc1` [S74, 4-(4-((1-((4-Fluorophenyl)sulfonyl)azetidin-3-yl)sulfonyl)-3,4-dihydro-2H-pyrido[4,3-b][1,4]thiazin-8-yl)benzonitrile], the IC50 at human CYP11B1 is 22 nM; on human CYP11B2, 1.7 nM.

Take `N#Cc1ccc(-c2cncc3c2SCCN3S(=O)(=O)C2CN(S(=O)(=O)c3cccc(F)c3)C2)cc1` [S75, 4-(4-((1-((3-Fluorophenyl)sulfonyl)azetidin-3-yl)sulfonyl)-3,4-dihydro-2H-pyrido[4,3-b][1,4]thiazin-8-yl)benzonitrile]: the IC50 on human CYP11B1 is 12 nM; against human CYP11B2 it was 0.7 nM.

Regarding `N#Cc1ccc(-c2cncc3c2SCCN3S(=O)(=O)C2CN(S(=O)(=O)c3ccc(C#N)cc3)C2)cc1` [S76, 4-((3-((8-(4-Cyanophenyl)-2,3-dihydro-4H-pyrido[4,3-b][1,4]thiazin-4-yl)sulfonyl)azetidin-1-yl)sulfonyl)benzonitrile], the half-inhibitory concentration (IC50) against human CYP11B1 amounted to 24 nM; on human CYP11B2, 0.8 nM.

`N#Cc1ccc(-c2cncc3c2SCCN3S(=O)(=O)C2CN(S(=O)(=O)c3cccc(C#N)c3)C2)cc1` [S77, 3-((3-((8-(4-Cyanophenyl)-2,3-dihydro-4H-pyrido[4,3-b][1,4]thiazin-4-yl)sulfonyl)azetidin-1-yl)sulfonyl)benzonitrile]: the IC50 is 32 nM on human CYP11B1 and 0.8 nM on human CYP11B2.

Turning to `COc1ccc(S(=O)(=O)N2CC(S(=O)(=O)N3CCSc4c(-c5ccc(C#N)cc5)cncc43)C2)cc1` [S78, 4-(4-((1-((4-Methoxyphenyl)sulfonyl)azetidin-3-yl)sulfonyl)-3,4-dihydro-2H-pyrido[4,3-b][1,4]thiazin-8-yl)benzonitrile], the results for the IC50 on human CYP11B1 and against human CYP11B2 were 38 nM and 1.2 nM, respectively.

For the compound `COc1cccc(S(=O)(=O)N2CC(S(=O)(=O)N3CCSc4c(-c5ccc(C#N)cc5)cncc43)C2)c1` [S79, 4-(4-((1-((3-Methoxyphenyl)sulfonyl)azetidin-3-yl)sulfonyl)-3,4-dihydro-2H-pyrido[4,3-b][1,4]thiazin-8-yl)benzonitrile], the results for the IC50 at human CYP11B1 and against human CYP11B2 were 16 nM and 0.8 nM, respectively.

In the case of `N#Cc1ccc(CN2CC(S(=O)(=O)N3CCSc4c(-c5ccc(C#N)cc5)cncc43)C2)cc1` [S80, 4-(4-((1-(4-Cyanobenzyl)azetidin-3-yl)sulfonyl)-3,4-dihydro-2H-pyrido[4,3-b][1,4]thiazin-8-yl)benzonitrile], the IC50 stood at 18 nM on human CYP11B1 and 0.6 nM at human CYP11B2.

As for `N#Cc1ccc(-c2cncc3c2SCCN3S(=O)(=O)C2CN(Cc3cccc(C#N)c3)C2)cc1` [S81, 3-((3-((8-(4-Cyanophenyl)-2,3-dihydro-4H-pyrido[4,3-b][1,4]thiazin-4-yl)sulfonyl)azetidin-1-yl)methyl)benzonitrile], the figures for the IC50 against human CYP11B1 and against human CYP11B2 were 19 nM and 0.4 nM, respectively.

Turning to `N#Cc1ccc(-c2cncc3c2SCCN3S(=O)(=O)C2CN(Cc3ccc(F)cc3)C2)cc1` [S82, 4-(4-((1-(4-Fluorobenzyl)azetidin-3-yl)sulfonyl)-3,4-dihydro-2H-pyrido[4,3-b][1,4]thiazin-8-yl)benzonitrile], the IC50 against human CYP11B1 came to 9.4 nM; against human CYP11B2, 0.4 nM.

As to `N#Cc1ccc(-c2cncc3c2SCCN3S(=O)(=O)C2CN(Cc3cccc(F)c3)C2)cc1` [S83, 4-(4-((1-(3-Fluorobenzyl)azetidin-3-yl)sulfonyl)-3,4-dihydro-2H-pyrido[4,3-b][1,4]thiazin-8-yl)benzonitrile], the IC50 came out at 21 nM against human CYP11B1 and 0.8 nM against human CYP11B2.

With `COc1ccc(CN2CC(S(=O)(=O)N3CCSc4c(-c5ccc(C#N)cc5)cncc43)C2)cc1` [S84, 4-(4-((1-(4-Methoxybenzyl)azetidin-3-yl)sulfonyl)-3,4-dihydro-2H-pyrido[4,3-b][1,4]thiazin-8-yl)benzonitrile], the IC50 against human CYP11B1 is 57 nM; against human CYP11B2 it was 1.1 nM.

Regarding `COc1cccc(CN2CC(S(=O)(=O)N3CCSc4c(-c5ccc(C#N)cc5)cncc43)C2)c1` [S85, 4-(4-((1-(3-Methoxybenzyl)azetidin-3-yl)sulfonyl)-3,4-dihydro-2H-pyrido[4,3-b][1,4]thiazin-8-yl)benzonitrile], the IC50 at human CYP11B1 is 37 nM; against human CYP11B2 it was 0.9 nM.

Regarding `CC(=O)Nc1ccccc1C(=O)N1CCSc2c(-c3ccc(C#N)cc3)cncc21` [S86, N-(2-(8-(4-Cyanophenyl)-3,4-dihydro-2H-pyrido[4,3-b][1,4]thiazine-4-carbonyl)phenyl) acetamide], the IC50 against human CYP11B1 is 1540 nM; against human CYP11B2, 22 nM.

Regarding `N#Cc1ccc(-c2cncc3c2SCCN3C(=O)c2cccc(C(F)(F)F)c2)cc1` [S87, 4-(4-(3-(Trifluoromethyl)benzoyl)-3,4-dihydro-2H-pyrido[4,3-b][1,4]thiazin-8-yl)benzonitrile], the IC50 is 522 nM at human CYP11B1 and 12 nM on human CYP11B2.

As to `N#Cc1ccc(-c2cncc3c2SCCN3C(=O)c2ccc(C(F)(F)F)cc2)cc1` [S88, 4-(4-(4-(Trifluoromethyl)benzoyl)-3,4-dihydro-2H-pyrido[4,3-b][1,4]thiazin-8-yl)benzonitrile], the IC50 against human CYP11B1 is 251 nM; against human CYP11B2, 6.8 nM.

As for `Cc1ccc(C(=O)N2CCSc3c(-c4ccc(C#N)cc4)cncc32)cc1` [S89, 4-(4-(4-Methylbenzoyl)-3,4-dihydro-2H-pyrido[4,3-b][1,4]thiazin-8-yl)benzonitrile], the IC50 against human CYP11B1 was 2850 nM; at human CYP11B2, 43 nM.

Turning to `Cc1ccccc1C(=O)N1CCSc2c(-c3ccc(C#N)cc3)cncc21` [S90, 4-(4-(2-Methylbenzoyl)-3,4-dihydro-2H-pyrido[4,3-b][1,4]thiazin-8-yl)benzonitrile], the values for the IC50 at human CYP11B1 and at human CYP11B2 were 4440 nM and 64 nM, respectively.

(Values after patent publication US20260092074A1, “Annelated Pyridines as Steroidogenesis Inhibitors, Preparation Method and Use Thereof” (Guangzhou Vinnocent Pharmaceutical Limited, priority 2022, published 2026).)
